Six compounds from DBAASP can be followed below.

In brackets after ≈: the same amount, converted by molar mass. Several values for one entry are separate records, joined by “and”; a condition that tells them apart may be missing. Identical values can stand only once.

Common to all, as to test: ≥ marks a high value that may be exact or a test limit, other limits are often not marked, values filed in µg/mL are converted to µM
The subject of assay [1] is Aspergillus flavus KCTC 9471.
Assay [2] has as its system Aspergillus fumigatus KCTC 6145.
The test system of assay [3] is Bacillus subtilis.
Assay [4] relates to Botrytis cinerea.
The subject of assay [5] is Candida albicans KCTC 7270.
Assay [6] concerns Escherichia coli O157:H7 ATCC 43895.
The test system of assay [7] is Escherichia coli.
Assay [8] deals with Fusarium verticillioides.
Assay [9] relates to Listeria monocytogenes KCTC 3710.
In assay [10] the test system is Proteus vulgaris.
Assay [11] has as its system Pseudomonas aeruginosa.
The test system of assay [12] is Saccharomyces cerevisiae.
In assay [13] the test system is Salmonella typhimurium.
Assay [14] concerns Staphylococcus aureus.
Assay [15] has as its system Staphylococcus epidermidis.
The subject of assay [16] is Trichosporon beigelii.
The test system of assay [17] is Bacillus subtilis KCTC 1998.
Assay [18] relates to Escherichia coli ATCC 25922.
Assay [19] has as its system Pseudomonas aeruginosa ATCC 15692.
Assay [20] concerns Staphylococcus aureus ATCC 25923.
Assay [21] relates to Escherichia coli HB101.
Assay [22] concerns Leishmania major MHOM/IL/67/JERICHO-II.
Assay [23] relates to Staphylococcus aureus Cowan 1.
For assay [24], the system named is Escherichia coli ATCC 11775.
The subject of assay [25] is Escherichia coli ATCC 35218.
Assay [26] has as its system Salmonella enterica subsp. enterica serovar Typhi Vi+.
For assay [27], the system named is Salmonella enterica subsp. enterica serovar Typhimurium ATCC 14028.
Assay [28] concerns Bacillus cereus C737.
Assay [29] concerns Escherichia coli UB1005.
The subject of assay [30] is Pseudomonas aeruginosa PAO1.

On to `CC[C@H](C)[C@H](NC(=O)[C@H](CCCCN)NC(=O)[C@H](CO)NC(=O)[C@H](Cc1ccccc1)NC(=O)[C@H](CC(C)C)NC(=O)[C@H](CCCCN)NC(=O)[C@H](CCC(=O)O)NC(=O)[C@H](CC(C)C)NC(=O)[C@H](CCCN=C(N)N)NC(=O)[C@H](CCCCN)NC(=O)[C@H](Cc1ccccc1)NC(=O)[C@@H](NC(=O)[C@H](CCCCN)NC(=O)[C@H](CCCCN)NC(=O)[C@H](C)N)C(C)C)C(=O)N[C@@H](Cc1c[nH]c2ccccc12)C(=O)N[C@@H](CC(N)=O)C(=O)N[C@@H](CC(=O)O)C(=O)N[C@@H](CCCCN)C(N)=O` [AKKVFKRLEKLFSKIWNDK], for which the MIC was at least 50 µM in assay [1]; at least 50 µM in [2]; 1.56 µM (≈ 3.71 µg/mL) in assay [3]; 6.25 µM (≈ 14.9 µg/mL) in assay [4]; 25 µM (≈ 59.4 µg/mL) in [5]; 6.25 µM (≈ 14.9 µg/mL) in assay [6]. Further, the MIC in assay [7] is 3.13 µM (≈ 7.44 µg/mL); in assay [8], 25 µM (≈ 59.4 µg/mL); in assay [9] it was 1.56 µM (≈ 3.71 µg/mL); in assay [10], 3.13 µM (≈ 7.44 µg/mL); in assay [11] it was 6.25 µM (≈ 14.9 µg/mL); in assay [12] it was 25 µM (≈ 59.4 µg/mL). For the same compound, the MIC in assay [13] came to 0.78 µM (≈ 1.85 µg/mL); in assay [14], 6.25 µM (≈ 14.9 µg/mL); in assay [15], 3.13 µM (≈ 7.44 µg/mL); in assay [16], 1.56 µM (≈ 3.71 µg/mL).

For the compound `CC[C@H](C)[C@H](NC(=O)[C@H](CCCCN)NC(=O)[C@H](CO)NC(=O)[C@H](Cc1ccccc1)NC(=O)[C@H](CC(C)C)NC(=O)[C@H](CCCCN)NC(=O)[C@H](CCC(=O)O)NC(=O)[C@H](CC(C)C)NC(=O)[C@H](CCCN=C(N)N)NC(=O)[C@H](CCCCN)NC(=O)[C@H](Cc1ccccc1)NC(=O)[C@@H](NC(=O)[C@H](CCCCN)NC(=O)[C@H](CCCCN)NC(=O)[C@H](C)N)C(C)C)C(=O)N[C@@H](Cc1c[nH]c2ccccc12)C(=O)N[C@@H](CC(N)=O)C(=O)N[C@@H](Cc1c[nH]c2ccccc12)C(=O)N[C@@H](CCCCN)C(N)=O` [AKKVFKRLEKLFSKIWNWK], the minimum inhibitory concentration (MIC) in [1] was found to be 25 µM (≈ 61.2 µg/mL); in assay [2], 25 µM (≈ 61.2 µg/mL); in [17], 2 µM (≈ 4.9 µg/mL); in [3], 1.56 µM (≈ 3.82 µg/mL); in assay [4], 3.13 µM (≈ 7.67 µg/mL); in [5] it was 12.5 µM (≈ 30.6 µg/mL). The MIC came out at 2 µM (≈ 4.9 µg/mL) in [18]; 3.13 µM (≈ 7.67 µg/mL) in [6]; 1.56 µM (≈ 3.82 µg/mL) in assay [7]; 12.5 µM (≈ 30.6 µg/mL) in assay [8]; 0.39 µM (≈ 0.955 µg/mL) in [9]; 3.13 µM (≈ 7.67 µg/mL) in assay [10]. Also, the MIC in assay [19] was 2 µM (≈ 4.9 µg/mL); in assay [11] it was 3.13 µM (≈ 7.67 µg/mL); in assay [12], 25 µM (≈ 61.2 µg/mL); in assay [13], 0.39 µM (≈ 0.955 µg/mL); in [20], 2 µM (≈ 4.9 µg/mL); in [14], 1.56 µM and 3.13 µM. In addition, the MIC in assay [15] was 3.13 µM (≈ 7.67 µg/mL); in [16], 1.56 µM (≈ 3.82 µg/mL).

Consider `CSCC[C@H](NC(=O)[C@@H](NC(=O)CNC(=O)[C@H](CC(C)C)NC(=O)[C@H](CCCCN)NC(=O)[C@H](CCCCN)NC(=O)[C@H](CC(C)C)NC(=O)[C@H](CCSC)NC(=O)[C@@H](NC(=O)[C@H](CCCCN)NC(=O)[C@H](Cc1c[nH]c2ccccc12)NC(=O)[C@H](CC(C)C)NC(=O)[C@H](C)N)[C@@H](C)O)[C@@H](C)O)C(=O)N[C@@H](C)C(=O)N[C@@H](CC(C)C)C(=O)N[C@@H](Cc1cnc[nH]1)C(=O)N[C@@H](C)C(=O)NCC(=O)N[C@@H](CCCCN)C(N)=O` [ALWKTMLKKLGTMALHAGK], for which the MIC in assay [21] is 3.6 µM (≈ 7.55 µg/mL); in assay [22] it was 17.9 µM (≈ 37.5 µg/mL); in [23] it was at least 35.9 µM.

For `CC[C@H](C)[C@H](NC(=O)[C@@H]1CCCN1C(=O)[C@H](CCCN=C(N)N)NC(=O)[C@@H]1CCCN1C(=O)[C@H](Cc1cnc[nH]1)NC(=O)[C@H](CO)NC(=O)[C@@H](NC(=O)[C@@H]1CCCN1C(=O)[C@H](CCCN=C(N)N)NC(=O)[C@@H]1CCCN1C(=O)[C@H](CO)NC(=O)[C@H](Cc1ccc(O)cc1)NC(=O)[C@@H]1CCCN1C(=O)[C@H](CCCCN)NC(=O)[C@@H]1CCCN1C(=O)[C@H](CCCCN)NC(=O)CN)[C@@H](C)O)C(=O)N[C@@H](CCCN=C(N)N)C(=O)N[C@H](C(=O)O)C(C)C` [GKPKPYSPRPTSHPRPIRV], the MIC in assay [24] was determined as 1.1 µM (≈ 2.39 µg/mL); in [18] it was 1.5 µM (≈ 3.26 µg/mL); in assay [25], 0.6 µM (≈ 1.3 µg/mL); in [26], 4 µM (≈ 8.68 µg/mL); in assay [27], 4 µM (≈ 8.68 µg/mL).

In the case of `CC[C@H](C)[C@H](NC(=O)[C@@H]1CCCN1C(=O)[C@H](CCCCN)NC(=O)[C@@H]1CCCN1C(=O)[C@H](Cc1cnc[nH]1)NC(=O)[C@H](CO)NC(=O)[C@@H](NC(=O)[C@@H]1CCCN1C(=O)[C@H](CCCN=C(N)N)NC(=O)[C@@H]1CCCN1C(=O)[C@H](CO)NC(=O)[C@H](Cc1ccc(O)cc1)NC(=O)[C@@H]1CCCN1C(=O)[C@H](CCCN=C(N)N)NC(=O)[C@@H]1CCCN1C(=O)[C@H](CCCCN)NC(=O)CN)[C@@H](C)O)C(=O)N[C@@H](CCCN=C(N)N)C(=O)N[C@H](C(=O)O)C(C)C` [GKPRPYSPRPTSHPKPIRV], the MIC in assay [24] was 6 µM (≈ 13 µg/mL); in [18], 7 µM (≈ 15.2 µg/mL); in assay [25], 3.5 µM (≈ 7.6 µg/mL); in assay [26], 30 µM (≈ 65.1 µg/mL); in assay [27], 25 µM (≈ 54.3 µg/mL).

In the case of `CC[C@H](C)[C@H](NC(=O)[C@H](CC(=O)O)NC(=O)[C@H](Cc1ccccc1)NC(=O)[C@H](CC(C)C)NC(=O)CN)C(=O)N[C@H](C(=O)N[C@@H](CCCCN)C(=O)N[C@@H](CCCCN)C(=O)N[C@H](C(=O)N[C@H](C(=O)NCC(=O)N[C@@H](C)C(=O)N[C@@H](C)C(=O)NCC(=O)N[C@@H](CO)C(=O)N[C@@H](CC(C)C)C(N)=O)C(C)C)C(C)C)C(C)C` [GLFDIVKKVVGAAGSL], the minimum inhibitory concentration (MIC) was at least 81.3 µM in assay [28], at least 81.3 µM in assay [29] and over 81.3 µM in assay [30].

In general, MIC refers to the smallest concentration in the dilution series that meets the test's criterion for growth inhibition. Lower therefore signals a more susceptible organism.
